In paper PMC9177823 (Journal of molecular biology, 2022):

Biological target: MelBSt; Salmonella typhimurium melibiose permease (Salmonella enterica, UniProt P30878)
Test: CD thermal denaturation at […] nm, purified in DDM
Type: binding
Settings: 50 mM melibiose, 100 mM LiCl, 20 mM NaPi pH 7.5, 10% glycerol, 0.01% DDM

Chain of MelBSt; Salmonella typhimurium melibiose permease (P30878 whole entry): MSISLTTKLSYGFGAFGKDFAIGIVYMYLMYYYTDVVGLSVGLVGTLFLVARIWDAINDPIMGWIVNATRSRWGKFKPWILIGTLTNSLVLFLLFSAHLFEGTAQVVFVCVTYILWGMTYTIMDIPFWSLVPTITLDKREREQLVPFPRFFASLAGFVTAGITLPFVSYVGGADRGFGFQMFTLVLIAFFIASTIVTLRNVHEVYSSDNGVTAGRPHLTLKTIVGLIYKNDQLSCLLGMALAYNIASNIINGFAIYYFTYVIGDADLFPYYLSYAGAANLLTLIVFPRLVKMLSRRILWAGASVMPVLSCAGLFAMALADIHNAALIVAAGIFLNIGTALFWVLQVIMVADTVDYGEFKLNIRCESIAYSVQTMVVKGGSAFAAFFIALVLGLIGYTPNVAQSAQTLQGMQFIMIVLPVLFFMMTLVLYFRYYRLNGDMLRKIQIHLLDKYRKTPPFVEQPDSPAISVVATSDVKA

OC[C@H]1O[C@H](OC[C@H]2OC(O)[C@H](O)[C@@H](O)[C@@H]2O)[C@H](O)[C@@H](O)[C@H]1O (stereo partly shown) [melibiose]
WT: 63.87 ± 0.04 °C
